What was measured:
[1] = 101.33 kPa, Liquid, Vibrating tube method
[2] = xn = mol fraction of the nth substance listed; conditions: 100 kPa, Liquid, Vibrating tube method

CCCO [propan-1-ol]
[1]
Conditions | mass density [kg/m3]
293.15 K | 803.77
298.15 K | 799.69
303.15 K | 795.58
308.15 K | 791.52
313.15 K | 787.42
318.15 K | 783.17
323.15 K | 778.96

NCCO [2-aminoethan-1-ol] + CCCCO
mass density [kg/m3], [2]
Conditions | x1 = 0.1188 | x1 = 0.2328 | x1 = 0.3421 | x1 = 0.4472 | x1 = 0.5482 | x1 = 0.6454 | x1 = 0.739 | x1 = 0.8291 | x1 = 0.9161 | x1 = 1
293.15 K | 828.26 | 846.15 | 864.71 | 884.56 | 904.81 | 925.84 | 947.05 | 969.79 | 993.15 | 1016.47
298.15 K | 824.33 | 842.24 | 860.76 | 880.66 | 900.83 | 921.87 | 943.04 | 965.8 | 989.15 | 1012.53
303.15 K | 820.32 | 838.27 | 856.75 | 876.66 | 896.78 | 917.83 | 938.98 | 961.75 | 985.1 | 1008.47
308.15 K | 816.39 | 834.35 | 852.81 | 872.72 | 892.82 | 913.86 | 935 | 957.78 | 981.13 | 1004.49
313.15 K | 812.46 | 830.41 | 848.84 | 868.77 | 888.83 | 909.88 | 931 | 953.79 | 977.14 | 1000.5
318.15 K | 808.37 | 826.33 | 844.74 | 864.67 | 884.72 | 905.76 | 926.88 | 949.68 | 973.04 | 996.39
323.15 K | 804.35 | 822.32 | 840.73 | 860.67 | 880.7 | 901.75 | 922.86 | 945.68 | 969.05 | 992.41

CC(C)O [propan-2-ol] + NCCO
[2], x2 = 0
Conditions | mass density [kg/m3]
293.15 K | 785.1
298.15 K | 780.91
303.15 K | 776.57
308.15 K | 772.24
313.15 K | 767.82
318.15 K | 763.19
323.15 K | 758.55

CCCO [propan-1-ol] + NCCO
[2], x2 = 0
Conditions | mass density [kg/m3]
293.15 K | 803.77
298.15 K | 799.69
303.15 K | 795.58
308.15 K | 791.52
313.15 K | 787.42
318.15 K | 783.17
323.15 K | 778.96

NCCO [2-aminoethan-1-ol] + CCCO
mass density [kg/m3], [2]
Conditions | x1 = 0.0986 | x1 = 0.1974 | x1 = 0.2966 | x1 = 0.3961 | x1 = 0.496 | x1 = 0.5961 | x1 = 0.6966 | x1 = 0.7974 | x1 = 0.8985 | x1 = 1
293.15 K | 823.05 | 842.4 | 862.05 | 882.56 | 903.81 | 924.46 | 946.99 | 969.87 | 992.94 | 1016.47
298.15 K | 818.95 | 838.27 | 857.94 | 878.51 | 899.73 | 920.46 | 942.97 | 965.86 | 988.96 | 1012.53
303.15 K | 814.83 | 834.12 | 853.8 | 874.37 | 895.6 | 916.36 | 938.85 | 961.75 | 984.88 | 1008.47
308.15 K | 810.75 | 830.03 | 849.74 | 870.31 | 891.55 | 912.32 | 934.79 | 957.71 | 980.88 | 1004.49
313.15 K | 806.64 | 825.91 | 845.63 | 866.21 | 887.47 | 908.27 | 930.72 | 953.68 | 976.87 | 1000.5
318.15 K | 802.38 | 821.65 | 841.39 | 861.99 | 883.26 | 904.08 | 926.53 | 949.53 | 972.75 | 996.39
323.15 K | 798.19 | 817.46 | 837.23 | 857.84 | 879.14 | 899.9 | 922.45 | 945.49 | 968.76 | 992.41

NCCO [2-aminoethan-1-ol] + CC(C)CO
mass density [kg/m3], [2]
Conditions | x1 = 0.1188 | x1 = 0.2328 | x1 = 0.3421 | x1 = 0.4472 | x1 = 0.5482 | x1 = 0.6454 | x1 = 0.739 | x1 = 0.8291 | x1 = 0.9161 | x1 = 1
293.15 K | 819.76 | 840.36 | 859.83 | 880.16 | 901.41 | 923.2 | 946.54 | 967.04 | 992.18 | 1016.47
298.15 K | 815.85 | 836.42 | 855.88 | 876.22 | 897.44 | 919.26 | 942.54 | 963.08 | 988.22 | 1012.53
303.15 K | 811.84 | 832.41 | 851.83 | 872.2 | 893.38 | 915.22 | 938.44 | 959.04 | 984.12 | 1008.47
308.15 K | 807.88 | 828.46 | 847.85 | 868.25 | 889.39 | 911.26 | 934.38 | 955.07 | 980.15 | 1004.49
313.15 K | 803.87 | 824.49 | 843.85 | 864.27 | 885.38 | 907.27 | 930.38 | 951.07 | 976.15 | 1000.5
318.15 K | 799.72 | 820.35 | 839.71 | 860.15 | 881.25 | 903.15 | 926.19 | 946.97 | 972.04 | 996.39
323.15 K | 795.62 | 816.29 | 835.65 | 856.12 | 877.2 | 899.14 | 922.11 | 942.97 | 968.05 | 992.41

NCCO [2-aminoethan-1-ol] + CCO
mass density [kg/m3], [2]
Conditions | x1 = 0.0773 | x1 = 0.1586 | x1 = 0.2443 | x1 = 0.3346 | x1 = 0.43 | x1 = 0.5308 | x1 = 0.6377 | x1 = 0.7511 | x1 = 0.8716 | x1 = 1
293.15 K | 810.46 | 831.93 | 853.39 | 876.12 | 899.09 | 921.99 | 945.08 | 968.64 | 992.58 | 1016.47
298.15 K | 806.22 | 827.71 | 849.2 | 871.96 | 894.95 | 917.9 | 941.02 | 964.62 | 988.58 | 1012.53
303.15 K | 801.86 | 823.37 | 844.9 | 867.69 | 890.7 | 913.65 | 936.83 | 960.48 | 984.46 | 1008.47
308.15 K | 797.55 | 819.07 | 840.65 | 863.47 | 886.5 | 909.55 | 932.73 | 956.42 | 980.42 | 1004.49
313.15 K | 793.21 | 814.75 | 836.38 | 859.23 | 882.29 | 905.4 | 928.6 | 952.34 | 976.38 | 1000.5
318.15 K | 788.71 | 810.29 | 831.96 | 854.85 | 877.94 | 901.1 | 924.34 | 948.13 | 972.21 | 996.39
323.15 K | 784.27 | 805.9 | 827.62 | 850.55 | 873.69 | 896.9 | 920.19 | 944.04 | 968.17 | 992.41

CCO [ethanol] + NCCO
[2], x2 = 0
Conditions | mass density [kg/m3]
293.15 K | 789.4
298.15 K | 785.13
303.15 K | 780.75
308.15 K | 776.41
313.15 K | 772.04
318.15 K | 767.52
323.15 K | 763.04

NCCO [2-aminoethan-1-ol] + CC(C)O
mass density [kg/m3], [2]
Conditions | x1 = 0.0986 | x1 = 0.1974 | x1 = 0.2966 | x1 = 0.3961 | x1 = 0.496 | x1 = 0.5961 | x1 = 0.6966 | x1 = 0.7974 | x1 = 0.8985 | x1 = 1
293.15 K | 804.43 | 824.39 | 844.97 | 868.88 | 891.61 | 915.69 | 939.56 | 965.29 | 989.95 | 1016.47
298.15 K | 800.28 | 820.25 | 840.83 | 864.78 | 887.55 | 911.65 | 935.53 | 961.29 | 985.96 | 1012.53
303.15 K | 795.98 | 815.98 | 836.58 | 860.58 | 883.37 | 907.48 | 931.4 | 957.17 | 981.86 | 1008.47
308.15 K | 791.72 | 811.76 | 832.38 | 856.42 | 879.25 | 903.38 | 927.32 | 953.13 | 977.84 | 1004.49
313.15 K | 787.39 | 807.48 | 828.13 | 852.23 | 875.1 | 899.25 | 923.23 | 949.07 | 973.81 | 1000.5
318.15 K | 782.87 | 803.04 | 823.74 | 847.9 | 870.82 | 895 | 919 | 944.88 | 969.66 | 996.39
323.15 K | 778.38 | 798.63 | 819.42 | 843.64 | 866.61 | 890.84 | 914.87 | 940.8 | 965.62 | 992.41

CC(C)CO [2-methyl-1-propanol] + NCCO
[2], x2 = 0
Conditions | mass density [kg/m3]
293.15 K | 801.85
298.15 K | 797.99
303.15 K | 794.03
308.15 K | 790.09
313.15 K | 786.12
318.15 K | 781.97
323.15 K | 777.86

NCCO [2-aminoethan-1-ol] + CC(C)(C)O
mass density [kg/m3], [2]
Conditions | x1 = 0.1188 | x1 = 0.2328 | x1 = 0.3421 | x1 = 0.4472 | x1 = 0.5482 | x1 = 0.6454 | x1 = 0.739 | x1 = 0.8291 | x1 = 0.9161 | x1 = 1
298.15 K | 801.37 | 821.17 | 842.86 | 865.97 | 887.94 | 912.32 | 938.36 | 962.65 | 988.97 | 1012.53
303.15 K | 796.64 | 816.75 | 838.57 | 861.74 | 883.79 | 908.2 | 934.25 | 958.59 | 984.91 | 1008.47
308.15 K | 791.93 | 812.34 | 834.31 | 857.55 | 879.69 | 904.13 | 930.2 | 954.6 | 980.92 | 1004.49
313.15 K | 787.14 | 807.85 | 829.98 | 853.33 | 875.55 | 900.04 | 926.15 | 950.59 | 976.92 | 1000.5
318.15 K | 782.16 | 803.17 | 825.49 | 848.95 | 871.27 | 895.8 | 921.97 | 946.45 | 972.81 | 996.39
323.15 K | 777.17 | 798.52 | 821.03 | 844.64 | 867.05 | 891.65 | 917.86 | 942.41 | 968.8 | 992.41

CC(C)(C)O [2-methylpropan-2-ol] + NCCO
[2], x2 = 0
Conditions | mass density [kg/m3]
298.15 K | 780.61
303.15 K | 775.42
308.15 K | 770.21
313.15 K | 764.92
318.15 K | 759.42
323.15 K | 753.95

CCCCO [butan-1-ol] + NCCO
[2], x2 = 0
Conditions | mass density [kg/m3]
293.15 K | 809.77
298.15 K | 805.92
303.15 K | 802
308.15 K | 798.14
313.15 K | 794.24
318.15 K | 790.2
323.15 K | 786.21

Source: the NIST ThermoML archive (doi:10.1016/j.jct.2019.01.025)
